Experimental data from patent publication US20090176846A1, “N-hydroxy-4- {5- [4- (5-isopropyl-2-methyl-1, 3-thiazol-4-yl) phenoxy] pentoxy} benzamidine 2 methanesulfonic acid salt” (priority 2005, published 2009).
≈ marks a conversion by molar mass, not a printed value. Where a name gives a salt, the structure may show the parent alone. Read-outs that look alike come from different tables or passages of the source.

Key:
[1] = Pharmacokinetic evaluation in SD rats; type: in vivo; conditions: 50 mg/kg; for Cmax (maximum blood concentration): n=4
Description: The 2 methanesulfonic acid salt, prepared in Example 1, and the 1 methanesulfonic acid salt, prepared in Comparative Example 1, of N-Hydroxy-4-{5-[4-(5-isopropyl-2-methyl-1,3-thiazol-4-yl)phenoxy]pentoxy} benzamidine, and the N-Hydroxy-4-{5-[4-(5-isopropyl-2-methyl-1,3-thiazol-4-yl)phenoxy]pentoxy} benzamidine, prepared in Reference Preparation Example 1, were individually administered to SD rats in a dosage of 50 mg/kg. At given time points (0, 0.5, 1, 1.5, 2, 3, 5 and 8 hrs), rats were mildly anesthetized with diethyl ether, and blood samples were collected from the orbital venous plexus and stored at −20° C. until concentration analysis. The plasma samples were mixed with an equal volume of an internal standard substance solution (prepared by dissolving betamethasone in acetonitrile to give a final concentration of 30 μg/ml) with agitation for. 1 min, and was centrifuged at 12,000 rpm for 10 min. Active components of the plasma samples were analyzed by HPLC (Model: Waters Module 1). From the obtained data, pharmacokinetic parameters (maximum blood concentration (Cmax) and area under the blood concentration-time curve (AUC) were calculated by noncompartment analysis using the WinNonlin program (Version 1.0, Scientific Consulting Inc., USA). The results are given in Table 5, below.

[2] = Solubility in various solvents at room temperature; type: physicochemical
Excerpt: The 2 methanesulfonic acid salt, prepared in Example 1, and the 1 methanesulfonic acid salt, prepared in Comparative Example 1, of N-Hydroxy-4-{5-[4-(5-isopropyl-2-methyl-1,3-thiazol-4-yl)phenoxy]pentoxy} benzamidine, and the N-Hydroxy-4-{5-[4-(5-isopropyl-2-methyl-1,3-thiazol-4-yl)phenoxy]pentoxy} benzamidine, prepared in Reference Preparation Example 1, were examined for solubility (μg/mL) in various solvents at room temperature.

[3] = Stability under accelerated conditions (40±2° C./75±5% RH), HPLC content; type: physicochemical; conditions: for Content (%): 40±2° C./75±5% RH, cap-opened vial, HPLC area percentage
Description: The 2 methanesulfonic acid salt of N-Hydroxy-4-{5-[4-(5-isopropyl-2-methyl-1,3-thiazol-4-yl)phenoxy]pentoxy} benzamidine, prepared in Example 1, was placed into a transparent glass vial, and stored at a cap-opened state under accelerated conditions (40±2° C./75±5% RH) for a period of two weeks. Thereafter, the sample was analyzed by HPLC (Waters Module 1). The analysis was performed using a column packed with an octadecyl-silylated silica gel (Shiseido CAPCELL PAK C18, UG 120, Particle size 5 μm) under conditions: UV detection: 256 nm, injection volume: 10 μl, mobile-phase flow rate: 1.5 mL/min. The amount of the compound was calculated as an area percentage.

[4] = tested on: bone fractures; conditions: rats, compared to control not treated; cited from earlier work
[5] = tested on: allergic inflammatory diseases (asthma); conditions: asthmatic mice, cited from earlier work
[6] = distilled water, room temperature
[7] = dose-dependent, compared to control group

Compound: CS(=O)(=O)O.Cc1nc(-c2ccc(OCCCCCOc3ccc(C(=N)NO)cc3)cc2)c(C(C)C)s1 [1 methanesulfonic acid salt, N-Hydroxy-4-{5-[4-(5-isopropyl-2-methyl-1,3-thiazol-4-yl)phenoxy]pentoxy} benzamidine 1 methanesulfonic acid salt]
- Cmax (maximum blood concentration) [1]: 1.40 ± 0.11 µg/mL
- AUC (area under the blood concentration-time curve) ([1]; n=4, 0-8 hrs): 7.01 ± 0.6 µg·h/mL
- solubility [2, 6]: 414.34 µg/mL
- solubility ([2]; pH 1.2, room temperature): 1,092.98 μg/mL
- solubility ([2]; pH 4.0, room temperature): 0.99 µg/mL

Compound: Cc1nc(-c2ccc(OCCCCCOc3ccc(C(=N)NO)cc3)cc2)c(C(C)C)s1 [2 methanesulfonic acid salt, N-Hydroxy-4-{5-[4-(5-isopropyl-2-methyl-1,3-thiazol-4-yl)phenoxy]pentoxy} benzamidine 2 methansulfonic acid salt]
- Cmax (maximum blood concentration) [1]: 1.67 ± 0.32 µg/mL
- AUC (area under the blood concentration-time curve) ([1]; n=4, 0-8 hrs): 10.3 ± 0.8 µg·h/mL
- bioavailability ([1]; SD, rat, plasma, read-out: bioavailability relative to the 1 methanesulfonic acid salt): > 46%
- change in content in accelerated test ([3]; accelerated test at 40° C., two weeks): no change
- Content (%) ([3]; after 1 week): 99.87%
- Content (%) ([3]; after 2 weeks): 99.86%
- Content (%) ([3]; after 2 days): 99.86%
- Content (%) ([3]; early stage): 99.85%
- solubility [2, 6]: 3,535.33 μg/mL
- solubility ([2]; pH 1.2, room temperature): 1,686.71 μg/mL
- solubility fold higher than the 1 methanesulfonic acid salt ([2]; pH 4.0): about 3 fold
- solubility ([2]; solvent of pH 4.0 (composition not named), pH 4, aqueous buffer, pH 4.0, room temperature, read-out: solubility): 3 µg/mL

Compound: Cc1nc(-c2ccc(OCCCCCOc3ccc(C(=N)NO)cc3)cc2)c(C(C)C)s1 [Free base, N-Hydroxy-4-{5-[4-(5-isopropyl-2-methyl-1,3-thiazol-4-yl)phenoxy]pentoxy} benzamidine]
- bone mineral content of callus [4]: significantly enhanced
- bone tissue density [4]: significantly increased
- callus volume [4]: significantly reduced
- content of connective and soft tissues in the callus tissue [4]: significantly reduced
- mechanical strength of callus [4]: significantly enhanced
- AUC ([1]; SD, rat, plasma, n=4, 0-8 hrs, read-out: AUC (area under the blood concentration-time curve)): 5.31 ± 0.49 µg·h/mL
- Cmax ([1]; SD, rat, plasma, n=4, read-out: Cmax (maximum blood concentration)): 1.09 ± 0.17 µg/mL
- solubility [2, 6]: 3.48 µg/mL (≈ 7.67 µM)
- solubility ([2]; solvent of pH 1.2 (composition not named), pH 1.2, simulated gastric fluid, pH 1.2, room temperature, read-out: solubility): 951 µg/mL (≈ 2100 µM)
- alveolar area ([5]; compared to control group): significantly increased
- number of eosinophils [5, 7]: significantly decreased
- number of eosinophils in bronchoalveolar lavage fluid [5, 7]: significantly decreased
- total number of leukocytes [5, 7]: significantly decreased
- increase in lung weight ([5]; oral administration for 18 days, compared to control given sterile distilled water): suppressed
